# Laboratory results taken from patent publication US6737383B1, “Herbicidal oxadiazolidines” (priority 1999, dated 2004).
# Assays:
# crabgrass = assay: Test B pre/postemergence crabgrass; assay type: in vivo, Digitaria sanguinalis
# How it was run: (§1)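 Test chemicals in a non-phytotoxic solvent mixture with surfactant were sprayed preemergence onto planted seeds and postemergence onto plants 2 to 18 cm tall (1- to 4-leaf stage). After twelve to sixteen days in a greenhouse, injury was visually rated against untreated controls from 0 (no effect) to 10 (complete control).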
# soybean = assay: Test B pre/postemergence soybean; assay type: in vivo, Glycine max
# How it was run: as §1
# sugar beet = assay: Test B pre/postemergence sugar beet; assay type: in vivo, Beta vulgaris
# How it was run: as §1
# giant foxtail = assay: Test B pre/postemergence giant foxtail; assay type: in vivo, Setaria faberii
# How it was run: as §1
# [1] = Postemergence, Rate 250 g/ha, scale 0 to 10
# [2] = Postemergence, Rate 500 g/ha, scale of 0 to 10 where 0 is no effect and 10 is complete control
# [3] = Preemergence, Rate 62 g/ha, scale of 0 to 10 where 0 is no effect and 10 is complete control
# [4] = Preemergence, Rate 125 g/ha, scale of 0 to 10 where 0 is no effect and 10 is complete control
# [5] = Preemergence, Rate 250 g/ha, scale 0 to 10, 0 is no effect, 10 is complete control
# [6] = Preemergence, Rate 500 g/ha, scale 0 to 10, 0 is no effect, 10 is complete control
# [7] = Rate 62 g/ha, Postemergence, scale 0 to 10 (0 no effect, 10 complete control)
# [8] = Rate 125 g/ha, Postemergence, scale 0 to 10, 0 is no effect, 10 is complete control
# [9] = Postemergence, Rate 62 g/ha, scale of 0 to 10, 0 is no effect, 10 is complete control
# [10] = Postemergence, Rate 125 g/ha, scale 0 to 10, 0 is no effect, 10 is complete control
# [11] = Postemergence, Rate 500 g/ha, scale 0 to 10, 0 is no effect, 10 is complete control
# [12] = Preemergence, Rate 125 g/ha, scale 0 to 10, 0 is no effect, 10 is complete control
# [13] = Preemergence, Rate 500 g/ha, scale of 0 to 10 where 0 is no effect and 10 is complete control
# [14] = Rate 250 g/ha, Postemergence, scale of 0 to 10 where 0 is no effect and 10 is complete control
compound,measurement,setting,value
COC(OC)C(C)n1c(=O)on(C(=O)N(c2ccc(F)cc2)C(C)C)c1=O (centres unmarked) [Compound 471],Crabgrass plant response rating,crabgrass; [1],8
same,Crabgrass plant response rating,crabgrass; [2],9
same,"Plant response rating, Crabgrass",crabgrass; [3],9
same,"Plant response rating, Crabgrass",crabgrass; [4],10
same,Crabgrass plant response rating,crabgrass; [5],10
same,Crabgrass plant response rating,crabgrass; [6],10
same,Crabgrass plant response rating,crabgrass; [7],1
same,Crabgrass plant response rating,crabgrass; [8],3
same,Soybean plant response rating,soybean; [1],3
same,"Plant response rating, Soybean",soybean; [3],0
same,"Plant response rating, Soybean",soybean; [4],0
same,Soybean plant response rating,soybean; [5],0
same,Soybean plant response rating,soybean; [6],0
same,Soybean plant response rating,soybean; [7],2
same,Soybean plant response rating,soybean; [8],2
same,Sugarbeets plant response rating,sugar beet; [1],0
same,"Plant response rating, Sugarbeets",sugar beet; [3],0
same,"Plant response rating, Sugarbeets",sugar beet; [4],2
same,Sugarbeets plant response rating,sugar beet; [5],2
same,Sugarbeets plant response rating,sugar beet; [6],4
same,Sugarbeets plant response rating,sugar beet; [7],0
same,Sugarbeets plant response rating,sugar beet; [8],0
same,Giant foxtail plant response rating,giant foxtail; [1],7
same,Giant foxtail plant response rating,giant foxtail; [2],8
same,"Plant response rating, Giant foxtail",giant foxtail; [3],10
same,"Plant response rating, Giant foxtail",giant foxtail; [4],10
same,Giant foxtail plant response rating,giant foxtail; [5],10
same,Giant foxtail plant response rating,giant foxtail; [6],10
same,Giant foxtail plant response rating,giant foxtail; [7],0
same,Giant foxtail plant response rating,giant foxtail; [8],1
CC(C)N(C(=O)n1oc(=O)n(CCC2OCCCO2)c1=O)c1ccc(Cl)cc1 [Compound 532],Crabgrass plant response rating,crabgrass; [9],4
same,Crabgrass plant response rating,crabgrass; [10],4
same,"Plant response rating, Crabgrass",crabgrass; [11],9
same,"Plant response rating, Crabgrass",crabgrass; [3],9
same,Crabgrass plant response rating,crabgrass; [12],9
same,Crabgrass plant response rating (0 to 10 scale),"crabgrass; Preemergence, Rate 250 g/ha",10
same,Crabgrass plant response rating,crabgrass; [13],10
same,"Plant response rating, Crabgrass",crabgrass; [14],7
same,Soybean plant response rating,soybean; [9],0
same,Soybean plant response rating,soybean; [10],2
same,"Plant response rating, Soybean",soybean; [11],5
same,"Plant response rating, Soybean",soybean; [3],0
same,Soybean plant response rating,soybean; [12],0
same,Soybean plant response rating (0 to 10 scale),"soybean; Preemergence, Rate 250 g/ha",0
same,Soybean plant response rating,soybean; [13],0
same,"Plant response rating, Soybean",soybean; [14],5
same,Sugarbeets plant response rating,sugar beet; [9],0
same,Sugarbeets plant response rating,sugar beet; [10],0
same,"Plant response rating, Sugarbeets",sugar beet; [11],0
same,"Plant response rating, Sugarbeets",sugar beet; [3],0
same,Sugarbeets plant response rating,sugar beet; [12],2
same,Sugarbeets plant response rating (0 to 10 scale),"sugar beet; Preemergence, Rate 250 g/ha",2
same,Sugarbeets plant response rating,sugar beet; [13],3
same,"Plant response rating, Sugarbeets",sugar beet; [14],0
same,Giant foxtail plant response rating,giant foxtail; [9],0
same,Giant foxtail plant response rating,giant foxtail; [10],4
same,"Plant response rating, Giant foxtail",giant foxtail; [11],8
same,"Plant response rating, Giant foxtail",giant foxtail; [3],10
same,Giant foxtail plant response rating,giant foxtail; [12],10
same,Giant foxtail plant response rating (0 to 10 scale),"giant foxtail; Preemergence, Rate 250 g/ha",10
same,Giant foxtail plant response rating,giant foxtail; [13],10
same,"Plant response rating, Giant foxtail",giant foxtail; [14],4
